This note sets out measurements from patent US20250206704A1, “ENGINEERED IONOPHORES FOR TRANSPORT OF METAL IONS” (The Brigham and Women's Hospital, Inc., priority 2022, published 2025).

For orientation: MIC means the lowest concentration found to suppress growth.

Converted amounts (≈) assume the structure as drawn. Read-outs that look alike come from different tables or passages of the source.

The test system of one data set is U2OS cells. The data set is described as follows: U2OS cell viability assay (CellTiter-Glo). The format is cell-based. The settings on record: Homo sapiens, cell viability, 48 h, 5 μM Zn^II, read-out: U2OS EC50 + 5 μM Zn^II. As to the method: (§1) Applicants reasoned that limiting extracellular zinc with EDTA would abolish ionophore activity by depleting the available metal ions for membrane transport. […] [24]
U2OS cells were seeded in black 384-well plates at a density of 3,000 cells per well in 25 μL of medium per well. After seeding, the cells were left to adhere overnight. The compounds to be tested were added to the designated culture plates in 25 μL of medium in triplicate with a normalized DMSO concentration (0.05%) in all treatments, and the plates were placed at 37° C. in a humidified atmosphere containing 5% CO2. After 48 h, 40 μl of CellTiter-Glo (Promega) was added to each well and incubated for 30 min, after which the plate luminescence was analyzed in a PerkinElmer EnVision Manager 1.13 (PerkinElmer). The average growth of treated cells was calculated by correcting the values for background luminescence and was subsequently normalized to the average of the two lowest treatments of the compound in question. Data were plotted and fitted to a dose-response curve using GraphPad Prism 9.

Data set [1] relates to S. epidermidis, S. caprae, B. subtilis, B. cereus. Kind of data set: Average MIC over the four gram-positive strains. The format is cell-based. As to the method: (§2) Next, Applicants evaluated the antibacterial activities of the ionophores. First, Applicants determined their minimum inhibitory concentration (MIC) in the gram-positive bacterium that causes hospital-acquired infections, Staphylococcus epidermidis.
(§3) The MIC assay was performed according to the Clinical and Laboratory Standards Institute protocols.^3 The antibacterial activities of the compounds were measured using the broth microdilution method. Serial dilutions of compounds were prepared in cation-adjusted Müller Hinton Broth. Each dilution (100 μL) was dispensed to each well of a round-bottom plate to obtain final concentrations ranging from 0.07815-40 μM. Bacteria were grown at 37° C. overnight on cation-adjusted Müller Hinton Broth. The bacterial solution was prepared in 0.9% saline and adjusted to obtain an OD600=0.1 using a SpectraMax M5 (Molecular Devices). The resultant suspension was diluted 1:20 with cation-adjusted Müller Hinton Broth. The resulting mixture (10 μL) was added to each well of the plates (approximately 5×10^4 CFU/well), mixed, and incubated at 37° C. for 24 h. The MIC value was determined as the minimum concentration that inhibited the growth of bacteria.

The subject of data set [2] is Staphylococcus epidermidis. Kind of data set: MIC, broth microdilution. The format is cell-based.
Description: as §2, §1
Staphylococcus epidermidis ATCC® 12228™, Staphylococcus caprae ATCC® 51549™, Bacillus subtilis ATCC® 6051™, and Bacillus cereus ATCC® 14579™ were grown in cation-adjusted Mueller-Hinton broth (CA-MHB) (catalog no. 90922, Sigma) as per the Clinical and Laboratory Standards Institute guidelines.2 Bacteria were routinely grown at 37° C. under aerobic conditions.
as §3
(In general: Dilution methods test growth across graded concentrations, often in twofold steps.)

Data set [3] is described as follows: UV/Vis titration, stability constant (logK) with ZnCl2. The format is physicochemical. Conditions: UV/Vis titration with ZnCl2, TitrationFit. The text has this:
Applicants validated the design principles by confirming that the silyl group lowered the binding affinity and shielded the hydrophilic pocket. […] [17] […] Applicants confirmed that all compounds bound Zn^II with 1:1 stoichiometry (FIG. 12). […] Applicants superimposed the X-ray structure of the TIPS-containing Zn^II:9 complex with the literature precedented Zn^II:1 and observed significant structural distortion in the Zn^II:9 complex, which could explain the lower logK.
A solution of ligand was prepared in acetonitrile. The starting concentration was chosen to be around 0.10 mM, based on the absorption maximum of the compound. This solution (2.5 mL) was pipetted into a quartz cuvette with a 1-cm optical path length. The titration was performed by the stepwise addition of a 10-mM ZnC12 solution in acetonitrile. The absorption spectra were measured over the range of 250-800 nm. The calculation of the stability constants was accomplished using TitrationFit.1

Data set [4] can be described thus: Co-incubation kinetic study of ligand exchange with DA-ZP1 in presence of compound and Zn(II). Conditions: 10 μM compound with 10 μM Zn^II, then 5 μM DA-ZP1. Format: physicochemical. As for the experimental part:
The compound in phosphate-buffered saline (PBS) was added to a 96-well microplate (250 μL, 10 μM per well, Nunc 96-well plates) and incubated with 10 μM of ZnCl2. […] Reaction kinetics were monitored by measuring the fluorescence of the activated fluorescein dye (λex=490 nm, λem=522 nm) over 2 h.

[5] abbreviates: read-out: Average MIC (molar, in brackets).
The mark [6] stands for this setting: Table 4, read-out: Strain MIC S. epidermidis.

`CC(C)[Si](c1cccc(CN(Cc2ccccn2)Cc2ccccn2)c1O)(C(C)C)C(C)C` [Compound 9, 2-((bis(pyridin-2-ylmethyl)amino)methyl)-6-(triisopropylsilyl)phenol]: the CC50 with U2OS cells was 14.2 µM. Also, the MIC in data set [1] (read-out: Average MIC) is 0.98 µg/mL; in data set [1] (setting [5]) it was 2.1 µM; in data set [1] (read-out: average MIC), 1 µg/mL; in data set [2] (setting [6]) it was 1.2 µg/mL (≈ 2.6 µM); in data set [2] (read-out: MIC), ~1.2 µg/mL (≈ 2.6 µM). Further, in data set [2], the “change of MIC with additional Zn^II in the media” value is on record as “unaltered”. Besides, the “change of MIC in presence of EDTA” value in data set [2] (50 μM EDTA) is listed as “dramatically increased”. Also, the “logK (Zn^II binding)” value in data set [3] is reported as 6.9. Also, in data set [4], the “ligand exchange with DA-ZP1 (fluorescence increase)” value was “rapid increase in fluorescence”.

With `CC(C)(C)[Si](C)(C)c1cccc(CN(Cc2ccccn2)Cc2ccccn2)c1O` [Compound 8, 2-((bis(pyridin-2-ylmethyl)amino)methyl)-6-(tert-butyldimethylsilyl)phenol], the CC50 with U2OS cells amounted to 76.5 µM. Further, the MIC in data set [1] (read-out: Average MIC) was 3.4 µg/mL; in data set [1] (setting [5]) it was 8.1 µM; in data set [2] (setting [6]), 4.2 µg/mL (≈ 10 µM); in data set [2] (read-out: MIC), ~4.2 µg/mL (≈ 10 µM). Further, in data set [3], the “logK (Zn^II binding)” value came out at 7.5.
